Source: US20140018347A1, “BENZOXAZEPINES AS INHIBITORS OF mTOR AND METHODS OF THEIR USE AND MANUFACTURE” (Exelixis, Inc., priority 2010, published 2014)
pIC50: −log10 of the molar value.

Tests used:
mTORC1 = mTORC1 (Homo sapiens, UniProt P42345); assay: mTOR/GbL/Raptor (mTORC1) ELISA Assay; format: biochemical; conditions: phosphorylation of 4E-BP1; 0.2 nM mTORC1, 10 μM ATP
Procedure, shortened: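 Kinase reaction: 0.2 nM mTORC1, 10 μM ATP, 50 nM NHis-4E-BP1 in Hepes pH 7.2 with 10 mM MnCl2, 120 min at ambient temperature. Phospho-4E-BP1 was captured on Ni-chelate plates and detected by anti-phospho-4E-BP1 rabbit IgG, HRP secondary and chemiluminescence.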

PI3Kalpha = PI3Kalpha (Homo sapiens, UniProt P42336); assay: PI3K Biochemical Assays (PI3K-alpha assay); conditions: ATP consumption, luciferase-luciferin; 1 μM ATP, 10 μM PIP2
Sequence of PI3Kalpha (P42336 whole entry, canonical isoform): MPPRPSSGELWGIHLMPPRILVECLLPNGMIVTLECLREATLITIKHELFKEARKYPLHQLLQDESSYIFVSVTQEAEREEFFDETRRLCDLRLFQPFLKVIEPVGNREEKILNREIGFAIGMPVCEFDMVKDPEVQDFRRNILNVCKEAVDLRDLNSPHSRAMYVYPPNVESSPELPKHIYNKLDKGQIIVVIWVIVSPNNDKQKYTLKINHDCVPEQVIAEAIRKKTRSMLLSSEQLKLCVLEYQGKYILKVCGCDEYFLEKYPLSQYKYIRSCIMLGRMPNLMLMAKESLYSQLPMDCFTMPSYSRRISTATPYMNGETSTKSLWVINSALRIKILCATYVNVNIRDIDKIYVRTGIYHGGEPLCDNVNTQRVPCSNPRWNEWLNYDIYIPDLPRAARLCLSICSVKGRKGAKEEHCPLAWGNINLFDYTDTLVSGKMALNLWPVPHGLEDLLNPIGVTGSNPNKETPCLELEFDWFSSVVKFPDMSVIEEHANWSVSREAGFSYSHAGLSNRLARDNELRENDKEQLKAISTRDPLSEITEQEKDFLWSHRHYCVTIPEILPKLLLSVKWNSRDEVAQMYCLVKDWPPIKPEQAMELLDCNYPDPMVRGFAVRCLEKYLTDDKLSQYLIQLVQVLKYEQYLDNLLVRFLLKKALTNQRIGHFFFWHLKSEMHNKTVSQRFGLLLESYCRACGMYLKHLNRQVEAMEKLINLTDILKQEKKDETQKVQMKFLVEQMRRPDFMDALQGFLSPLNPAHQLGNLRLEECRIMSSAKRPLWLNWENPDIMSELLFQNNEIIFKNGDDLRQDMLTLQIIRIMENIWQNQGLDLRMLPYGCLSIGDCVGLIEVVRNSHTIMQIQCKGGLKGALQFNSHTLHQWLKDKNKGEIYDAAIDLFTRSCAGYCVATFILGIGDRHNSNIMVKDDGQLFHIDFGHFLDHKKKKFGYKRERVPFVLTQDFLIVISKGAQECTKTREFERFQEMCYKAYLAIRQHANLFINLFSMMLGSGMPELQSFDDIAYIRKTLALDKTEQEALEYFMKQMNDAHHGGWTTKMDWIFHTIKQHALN
Sequence of PI3Kalpha (P27986 whole entry partner, canonical isoform): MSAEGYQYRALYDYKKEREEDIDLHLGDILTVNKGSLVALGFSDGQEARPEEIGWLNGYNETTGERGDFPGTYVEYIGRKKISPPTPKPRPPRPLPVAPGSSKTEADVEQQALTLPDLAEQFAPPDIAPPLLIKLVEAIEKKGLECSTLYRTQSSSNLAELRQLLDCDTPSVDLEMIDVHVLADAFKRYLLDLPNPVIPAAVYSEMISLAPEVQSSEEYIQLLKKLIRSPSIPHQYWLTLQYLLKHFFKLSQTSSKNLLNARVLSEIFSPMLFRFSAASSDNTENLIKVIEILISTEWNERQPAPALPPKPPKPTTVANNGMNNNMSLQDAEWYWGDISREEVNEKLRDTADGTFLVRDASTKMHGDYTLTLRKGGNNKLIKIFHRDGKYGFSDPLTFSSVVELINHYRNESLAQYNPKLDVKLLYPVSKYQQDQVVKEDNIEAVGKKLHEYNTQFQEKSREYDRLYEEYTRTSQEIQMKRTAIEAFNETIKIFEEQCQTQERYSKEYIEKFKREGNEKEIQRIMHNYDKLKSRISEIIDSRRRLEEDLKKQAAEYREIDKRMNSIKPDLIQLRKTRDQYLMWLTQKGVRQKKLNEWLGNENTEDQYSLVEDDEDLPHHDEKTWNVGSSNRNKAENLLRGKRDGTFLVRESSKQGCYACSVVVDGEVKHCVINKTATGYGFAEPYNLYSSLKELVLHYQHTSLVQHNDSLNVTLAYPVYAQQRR
Procedure, shortened: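 Recombinant PI3Kα 3 nM, ATP 1 μM and PIP2 10 μM in Tris pH 7.5 with 10 mM MgCl2, ~2 h at ambient temperature. ATP depletion (held to 40-60%) was read by Kinase-Glo luminescence for IC50. Other isoforms: β 10 nM, δ 4 nM; γ 40 nM, 1 h, 5 mM MgCl2.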

Row | SMILES | pIC50 (mTORC1) | pIC50 (PI3Kalpha)
1 | Cc1nc(CN(C)C)nc(N2CCOc3ccc(-c4cnc5sc(N)nc5c4)cc3C2)c1C [Compound 2, 6-(4-{2-[(dimethylamino)methyl]-5,6-dimethylpyrimidin-4-yl}-2,3,4,5-tetrahydro-1,4-benzoxazepin-7-yl)[1,3]thiazolo[5,4-b]pyridin-2-amine] | 5.60 to 6.30 | ≥ 7.00
2 | Cc1nc(CN(C)C)nc(N2CCOc3ccc(-c4cnc5sc(N)nc5c4)cc3C2)c1CC(O)CO (stereo not shown) [Compound 45, 3-{4-[7-(2-amino[1,3]thiazolo[5,4-b]pyridin-6-yl)-2,3-dihydro-1,4-benzoxazepin-4(5H)-yl]-2-[(dimethylamino)methyl]-6-methylpyrimidin-5-yl}propane-1,2-diol] | 5.60 to 6.30 | 5.60 to 6.30
3 | Cc1nc(N)nc(N2CCOc3ccc(-c4cnc5sc(N)nc5c4)cc3C2)c1C1CC1 [Compound 41, 6-[4-(2-amino-5-cyclopropyl-6-methylpyrimidin-4-yl)-2,3,4,5-tetrahydro-1,4-benzoxazepin-7-yl][1,3]thiazolo[5,4-b]pyridin-2-amine] | 5.60 to 6.30 | 6.30 to 7.00
4 | Cc1nc(N)nc(N2CCOc3ccc(-c4cnc5sc(N)nc5c4)cc3C2)c1CCC#N [Compound 44, 3-{2-amino-4-[7-(2-amino[1,3]thiazolo[5,4-b]pyridin-6-yl)-2,3-dihydro-1,4-benzoxazepin-4(5H)-yl]-6-methylpyrimidin-5-yl}propanenitrile] | 6.30 to 7.00 | ≥ 7.00
5 | Cc1nc(N)nc(N2CCOc3ccc(-c4cnc5sc(N)nc5c4)cc3C2)c1C=O [Compound 42, 2-amino-4-[7-(2-amino[1,3]thiazolo[5,4-b]pyridin-6-yl)-2,3-dihydro-1,4-bcnzoxazepin-4(5H)-yl]-6-methylpyrimidine-5-carbaldehyde] | 6.30 to 7.00 | ≥ 7.00
6 | Nc1nc(Cl)c(CO)c(N2CCOc3ccc(-c4cnc5sc(N)nc5c4)cc3C2)n1 [Compound 43, {2-amino-4-[7-(2-amino[1,3]thiazolo[5,4-b]pyridin-6-yl)-2,3-dihydro-1,4-benzoxazepin-4(5H)-yl]-6-chloropyrimidin-5-yl}methanol] | 6.30 to 7.00 | ≥ 7.00
7 | C=Cc1c(N2CCOc3ccc(-c4cnc5sc(N)nc5c4)cc3C2)nc(N)nc1C(F)(F)F [Compound 17, 6-{4-[2-amino-5-ethenyl-6-(trifluoromethyl)pyrimidin-4-yl]-2,3,4,5-tetrahydro-1,4-benzoxazepin-7-yl}[1,3]thiazolo[5,4-b]pyridin-2-amine] | ≥ 7.00 | ≥ 7.00
8 | Cc1nc2c(c(N3CCOc4ccc(-c5cnc6sc(N)nc6c5)cc4C3)n1)CC(C)(C)CC2 [Compound 59, 6-[4-(2,6,6-trimethyl-5,6,7,8-tetrahydroquinazolin-4-yl)-2,3,4,5-tetrahydro-1,4-benzoxazepin-7-yl][1,3]thiazolo[5,4-b]pyridin-2-amine] | ≥ 7.00 | ≥ 7.00
9 | Cc1cc(N2CCOc3ccc(-c4cnc5sc(N)nc5c4)cc3C2)nc(N)n1 [Compound 46, 6-[4-(2-amino-6-methylpyrimidin-4-yl)-2,3,4,5-tetrahydro-1,4-benzoxazepin-7-yl][1,3]thiazolo[5,4-b]pyridin-2-amine] | 5.60 to 6.30 | 6.30 to 7.00
10 | CCCc1c(Cl)nc(N)nc1N1CCOc2ccc(-c3cnc4sc(N)nc4c3)cc2C1 [Compound 9, 6-[4-(2-amino-6-chloro-5-propylpyrimidin-4-yl)-2,3,4,5-tetrahydro-1,4-benzoxazepin-7-yl][1,3]thiazolo[5,4-b]pyridin-2-amine] | ≥ 7.00 | ≥ 7.00
11 | Nc1cc(Cl)nc(N2CCOc3ccc(-c4cnc5sc(N)nc5c4)cc3C2)n1 [Compound 50, 6-[4-(4-amino-6-chloropyrimidin-2-yl)-2,3,4,5-tetrahydro-1,4-benzoxazepin-7-yl][1,3]thiazolo[5,4-b]pyridin-2-amine] | 6.30 to 7.00 | 6.30 to 7.00

The next lines start with the values.

Row | pIC50 (mTORC1) | pIC50 (PI3Kalpha) | SMILES
12 | ≥ 7.00 | 6.30 to 7.00 | Cc1nc(NS(C)(=O)=O)nc(N2CCOc3ccc(-c4cnc5sc(N)nc5c4)cc3C2)c1C(C)C [Compound 23, N-{4-(7-(2-amino[1,3]thiazolo[5,4-b]pyridin-6-yl)-2,3-dihydro-1,4-benzoxazepin-4(5H)-yl]-6-methyl-5-(1-methylethyl)pyrimidin-2-yl}methanesulfonamide]
13 | ≥ 7.00 | ≥ 7.00 | Cc1nc(N)nc(N2CCOc3c(F)cc(-c4cnc5sc(N)nc5c4)cc3C2)c1C(C)C [Compound 101, 6-{4-[2-amino-6-methyl-5-(1-methylethyl)pyrimidin-4-yl]-9-fluoro-2,3,4,5-tetrahydro-1,4-benzoxazepin-7-yl}[1,3]thiazolo[5,4-b]pyridin-2-amine]
14 | ≥ 7.00 | ≥ 7.00 | CCCc1c(C)nc(CN(C)C)nc1N1CCOc2ccc(-c3cnc4sc(N)nc4c3)cc2C1 [Compound 69, 6-(4-{2-[(dimethylamino)methyl]-6-methyl-5-propylpyrimidin-4-yl}-1,3,4,5-tetrahydro-1,4-benzoxazepin-7-yl)[1,3]thiazolo[5,4-b]pyridin-2-amine]
15 | ≥ 7.00 | ≥ 7.00 | CC(C)c1c(F)nc(N)nc1N1CCOc2ccc(-c3cnc4sc(N)nc4c3)cc2C1 [Compound 10, 6-{4-[2-amino-6-fluoro-5-(1-methylethyl)pyrimidin-4-yl]-2,3,4,5-tetrahydro-1,4-benzoxazepin-7-yl}[1,3]thiazolo[5,4-b]pyridin-2-amine]
16 | ≥ 7.00 | ≥ 7.00 | CCN(CC)Cc1nc(C)c(C(C)C)c(N2CCOc3ccc(-c4cnc5sc(N)nc5c4)cc3C2)n1 [Compound 4, 6-(4-{2-[(diethylamino)methyl]-6-methyl-5-(1-methylethyl)pyrimidin-4-yl}-2,3,4,5-tetrahydro-1,4-benzoxazepin-7-yl)[1,3]thiazolo[5,4-b]pyridin-2-amine]
17 | ≥ 7.00 | ≥ 7.00 | CC(C)c1c(Cl)nc(N)nc1N1CCOc2ccc(-c3cnc4sc(N)nc4c3)cc2C1 [Compound 8, 6-{4-[2-amino-6-chloro-5-(1-methylethyl)pyrimidin-4-yl]-2,3,4,5-tetrahydro-1,4-benzoxazepin-7-yl}[1,3]thiazolo[5,4-b]pyridin-2-amine]
18 | ≥ 7.00 | ≥ 7.00 | Cc1nc(CN(C)C)nc(N2CCOc3ccc(-c4cnc5sc(N)nc5c4)cc3C2)c1Cc1ccc(F)cc1 [Compound 62, 6-(4-{2-[(dimethylamino)methyl]-5-[(4-fluorophenyl)methyl]-6-methylpyrimidin-4-yl}-2,3,4,5-tetrahydro-1,4-benzoxazepin-7-yl)[1,3]thiazolo[5,4-b]pyridin-2-amine]
19 | ≥ 7.00 | ≥ 7.00 | Cc1nc(N)nc(N2CCOc3ccc(-c4cnc5sc(N)nc5c4)cc3C2)c1C#N [Compound 72, 2-amino-4-[7-(2-amino[1,3]thiazolo[5,4-b]pyridin-6-yl)-2,3-dihydro-1,4-benzoxazepin-4(5H)-yl]-6-methylpyrimidine-5-carbonitrile]
20 | ≥ 7.00 | ≥ 7.00 | CCc1c(Cl)nc(N)nc1N1CCOc2ccc(-c3cnc4sc(N)nc4c3)cc2C1 [Compound 7, 6-[4-(2-amino-6-chloro-5-ethylpyrimidin-4-yl)-2,3,4,5-tetrahydro-1,4-benzoxazepin-7-yl][1,3]thiazolo[5,4-b]pyridin-2-amine]
21 | ≥ 7.00 | ≥ 7.00 | Cc1nc(N)nc(N2CCOc3ccc(-c4cnc5sc(N)nc5c4)cc3C2)c1C(C)C [Compound 100]
22 | ≥ 7.00 | ≥ 7.00 | Cc1nc(CN(C)C)nc(N2CCOc3ccc(-c4cnc5sc(N)nc5c4)cc3C2)c1CC1CC1 [Compound 27, 6-(4-{5-(cyclopropylmethyl)-2-[(dimethylamino)methyl]-6-methylpyrimidin-4-yl}-2,3,4,5-tetrahydro-1,4-benzoxazepin-7-yl)[1,3]thiazolo[5,4-b]pyridin-2-amine]
23 | ≥ 7.00 | ≥ 7.00 | C=C(C)c1c(C)nc(N)nc1N1CCOc2ccc(-c3cnc4sc(N)nc4c3)cc2C1 [Compound 30, 6-{4-[2-amino-6-methyl-5-(1-methylethenyl)pyrimidin-4-yl]-2,3,4,5-tetrahydro-1,4-benzoxazepin-7-yl}[1,3]thiazolo[5,4-b]pyridin-2-amine]
